{
  "source": "patent EP1273297A1",
  "about": "“Vitamin E for the treatment of diseases in which the binding of the transcription factor NF-KB and/or AP-1 to promoter target sites has a beneficial effect (eg AIDS, cardiac infarction)” (Deutsches Krebsforschungszentrum Stiftung des öffentlichen …, priority 2001, dated 2003)",
  "key": {"[1]": {"tested_on": "AP-1", "test": "EMSA, nuclear extracts of J-27 T cells, binding to CD95L promoter AP-1 site", "format": "cell-based", "settings": "J-27 nuclear extracts, PMA/ionomycin 2 h, 50 µM vitamin E added 1 h before induction (Fig. 3A)", "description": "(A)^32P-labeled oligonucleotides containing the CD95L NF-κB (at the promoter -530 and -50 region) (Li-Weber et al., Eur. J. Immunol. 30 (2000), 661) and AP-1 (at the promoter +90 region) (Eichhorst et al., Mol. Cell. Biol. 20 (2000), 7826) binding sequences were analyzed by EMSA as described (Li-Weber et al., (2000). The EMSA probes had the following sequences: • CD95L NF-κB at-530: 5'-[…]-3' • CD95L NF-κB at-50: 5'-[…]-3' • CD95L AP-1 at +90: 5'-[…]-3'\n(§1) Nuclear extracts were prepared from J-27 T cells either non-induced (-) or induced (+) for 2 h by PMA (10 ng/ml) and ionomycin (0.5 µM) in the absence (-) or presence (+) of 50 µM vitamin E (VE) (added 1 h before induction). The inducible complex corresponding to NF-κB and AP-1 were indicated. A NF-Y binding oligonucleotide 5'[…]-3' was used for equal loading of nuclear extracts.\nIt was investigated whether vitamin E affects NF-KB and AP-1 binding to the CD95L promoter target sites. Nuclear extracts were prepared from J-27 T cells stimulated in the presence or absence of vitamin E. The NF-κB and AP-1 binding sites contained in the CD95L promoter were used as probes in an electrophoretic-mobility-shift-assay (EMSA). Stimulation of T cell with PMA and ionomycin induced binding of nuclear factors to the NF-κB and AP-1 sites of the CD95L promoter (Fig. 3A). […]"}, "[2]": {"tested_on": "NF-Y", "test": "EMSA control, constitutive transcription factor, NF-Y binding oligonucleotide", "format": "cell-based", "settings": "J-27 nuclear extracts, 50 µM vitamin E (Fig. 3A)", "description": "as §1\nIt was investigated whether vitamin E affects NF-KB and AP-1 binding to the CD95L promoter target sites. Nuclear extracts were prepared from J-27 T cells stimulated in the presence or absence of vitamin E. The NF-κB and AP-1 binding sites contained in the CD95L promoter were used as probes in an electrophoretic-mobility-shift-assay (EMSA). Stimulation of T cell with PMA and ionomycin induced binding of nuclear factors to the NF-κB and AP-1 sites of the CD95L promoter (Fig. 3A). These inducible binding complexes were either reduced or supershifted in the presence of antibodies against the subunits p50 and p65 of NF-κB or antibodies against the AP-1 family members Jun and Fos (Fig. 3B). […] As a control, the constitutive transcription factor […] was not affected by vitamin E (Fig. 3A). Experimental details are given in the legend to Figure 3."}, "[3]": {"tested_on": "Jurkat J-27 T cells", "test": "AICD of Jurkat J-27 T cells, apoptotic nuclei by DNA fragmentation", "format": "cell-based", "settings": "J-27 cells", "description": "J-27 T cells were induced either with PMA (10 ng/ml) Sigma (St. Louis, MO, USA) and ionomycin (0.5 µM), Calbiochem (Bad Soden/Ts, Germany) or with plate bound α-CD3 (OKT3, 50 µg/ml) for 24 h in the presence of vitamin E or equal amount of the vitamin E solvent ethanol. Apoptotic nuclei were measured by determination of DNA fragmentation (Dhein et al., Nature 373 (1995), 438).\nJ-27 cells were stimulated in the absence or presence of CD95-Fc (50 µg/ml) or NOKI (50 µg/ml). BD-Pharmingen (Heidelberg, Germany), for 24 h.\n(§2) To further investigate the molecular mechanism by which vitamin E attenuates AICD, several Jurkat T cell sub-clones susceptible to T-cell-receptor (TCR)-mediated-activation-induced apoptosis were selected. Data from one of the representative clones, clone 27 (J-27) is presented here. Activation of T cells through the T cell receptor can be mimicked by stimulation with the phorbol ester (PMA) and calcium ionophores (ionomycin). […] Therefore, it is unlikely that vitamin E directly interferes with signals downstream of the CD95 receptor. […] Thus, vitamin E may reduce CD95L expression at the transcriptional level and, therefore, attenuate AICD in J-27 cells. Experimental details are given in the legend to Figure 2."}, "[4]": {"tested_on": "NF-κB", "test": "Luciferase reporter assay in J-27 T cells, three copies of the CD95L promoter NF-κB binding sites", "format": "cell-based", "settings": "J-27 cells, 50 µM vitamin E 1 h, PMA/ionomycin 8 h (Fig. 4)", "description": "(§3) J-27 T cells were transiently transfected with the luciferase reporter constructs containing the 0.86-kb CD95L promoter (Li-Weber et al., Eur. J. Immunol. 30 (2000), 661), or three copies of the NF-κB binding sites at -530 or -50 region (Li-Weber et al., Eur. J. Immunol. 30 (2000), 661) or the AP-1 motif at +90 region (Eichhorst et al., Mol. Cell. Biol. 20 (2000), 7826) of the CD95L promoter as described in Li-Weber et al., 2000. All promoter constructs are described in the cited references. A luciferase reporter construct containing three copies of the Egr consensus binding site was used as a control (Li-Weber et al., Eur. J. Immunol. 29 (1999), 3017). After overnight culture, the cells were divided and treated with vitamin E (VE) (50 µM) or the vitamin E solvent ethanol for 1 h and than further cultured in the absence (empty box) or presence (black box) of PMA (10 ng/ml) and ionomycin (0.5 µM). Luciferase activity was determined after 8 h of stimulation. Results represent the average of three to five independent transfection experiments.\n(§4) To further investigate the effect of vitamin E on CD95L expression, the CD95L promoter (-860 to +100) or a minimal TATA promoter containing three copies of either the NF-B or the AP1 sites of the CD95L promoter were linked to the luciferase reporter gene and these constructs were transiently transfected into J-27 T cells. […]"}, "[5]": {"tested_on": "IFNγ mRNA", "test": "IFNγ mRNA by RT-PCR (control) in J-27 T cells stimulated by PMA and ionomycin", "format": "cell-based", "settings": "J-27 cells, 50 µM vitamin E, PMA/ionomycin (Fig. 2E)", "description": "J-27 T cells were cultured in the absence or presence of 50 µM vitamin E for 1 h and then stimulated by PMA (10 ng/ml) and ionomycin (0.5 µM) for the indicated times. CD95L mRNA expression was analyzed by RT-PCR. Primers for IFNγ and β-actin were used as controls.\nas §2"}, "[6]": {"tested_on": "Egr binding site", "test": "Luciferase reporter assay in J-27 T cells, three copies of the Egr consensus binding site (control)", "format": "cell-based", "settings": "J-27 cells, 50 µM vitamin E 1 h, PMA/ionomycin 8 h, control (Fig. 4)", "description": "as §3, §4"}, "[7]": {"tested_on": "CD95L mRNA", "test": "CD95L mRNA levels by RT-PCR in peripheral blood lymphocytes of HIV positive individuals", "format": "cell-based, human", "settings": "25 µM vitamin E 1 h, α-CD3 12 h (Fig. 5)", "description": "Freshly isolated peripheral blood lymphocytes from HIV positive individuals were treated without or with vitamin E (VE) (25 µM) for 1 h and than stimulated with plate bound α-CD3 ([…]) for 12 h. CD95L mRNA levels were examined by RT-PCR (Eichhorst et al., 2000). Results from 5 individuals are shown.\nIt was investigated whether vitamin E could block CD95L expression in the peripheral blood lymphocytes of HIV positive individuals. Peripheral blood lymphocytes from such individuals were subjected to analysis of the CD95L mRNA expression levels in the absence or the presence of vitamin E. Different levels of the CD95L mRNA expression were found in lymphocytes from different HIV patients examined. […] Experimental details are given in the legend to Figure 5."}, "[8]": {"tested_on": "peripheral blood lymphocytes of HIV positive individuals", "test": "AICD of peripheral blood lymphocytes of HIV positive individuals stimulated with plate bound α-CD3", "format": "cell-based, human", "description": "Peripheral blood lymphocytes from HIV positive individuals (n = 33 Patients) and uninfected donors (11 Donors) were stimulated with plate bound (α-CD3 (50 µg/ml) for 48 h. Apoptosis was assessed by a drop in the forward to side scatter profile of apoptotic in comparison to living cells. The mean difference between patients and uninfected individuals is -7.23. 95% confidence interval is -13.7, -2.12.\nFreshly isolated blood lymphocytes from 31 HIV positive individuals were stimulated with plate bound α-CD3 in the absence or presence of either 50 µg/ml CD95-Fc or 25 µM vitamin E (VE) (added 1 h before stimulation). IgG-1 (50 µg/ml), Sigma (St. Louis, MO, USA) was used as control. Cell death was assessed after 48 h stimulation.\nTo determine if vitamin E could reduce depletion of T cells from HIV positive individuals next the effects of vitamin E on AICD in peripheral blood lymphocytes of such individuals were analyzed. […] As opposed to lymphocytes from healthy donors lymphocytes isolated from HIV-infected individuals were more susceptible to apoptosis (Fig. 6A). […] Experimental details are given in the legend to Figure 6."}},
  "data": [
    {"molecule": "Cc1c(C)c2c(c(C)c1O)CC[C@@](C)(CCC[C@H](C)CCC[C@H](C)CCCC(C)C)O2", "note": "[vitamin E, α-tocopherol]", "values": [
      {"measurement": "binding of AP-1 to its binding site of the CD95L promoter (+90 region)", "setting": "[1]", "result": "prevented binding"},
      {"measurement": "NF-Y binding (constitutive loading control)", "setting": "[2]", "result": "not affected"},
      {"measurement": "PMA/ionomycin-induced cell death", "setting": "[3]; PMA 10 ng/ml and ionomycin 0.5 µM, 24 h (Fig. 2A, B)", "result": "significantly reduced"},
      {"measurement": "α-CD3-induced cell death", "setting": "[3]; plate bound α-CD3 (OKT3, 50 µg/ml) 24 h (Fig. 2A, B)", "result": "significantly reduced"},
      {"measurement": "luciferase expression driven by the NF-κB site of the CD95L promoter", "setting": "[4]", "result": "greatly reduced"},
      {"measurement": "levels of IFNγ mRNA", "setting": "[5]", "result": "not significantly changed"},
      {"measurement": "luciferase expression driven by the Egr binding site", "setting": "[6]", "result": "did not affect"},
      {"measurement": "expression of CD95L mRNA", "setting": "[7]", "result": "completely blocked in most patients"},
      {"measurement": "AICD", "setting": "[8]; 31 HIV positive individuals, α-CD3, 25 µM vitamin E added 1 h before stimulation, 48 h (Fig. 6B)", "result": "greatly reduced"},
      {"measurement": "reduction of AICD compared with that obtained by CD95-Fc", "setting": "[8]; HIV positive individuals, 25 µM vitamin E vs 50 µg/ml CD95-Fc (Fig. 6B)", "result": "even more pronounced"}
    ]}
  ]
}
